Assays:
Assay in all cases: relative viability (nuclei count vs DMSO), 5 days (fraction); higher = more cells survive
CUDC-101 + Bortezomib = compound: C#Cc1cccc(Nc2ncnc3cc(OC)c(OCCCCCCC(=O)NO)cc23)c1 [CUDC-101] + CC(C)C[C@H](NC(=O)[C@H](Cc1ccccc1)NC(=O)c1cnccn1)B(O)O [Bortezomib] (partner 0.002 µM)
Outline: (§1)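 Nuclei were stained with Hoechst during a one-step fixation (final 0.05% Triton X-100, 1% formaldehyde, 1 ug/ml Hoechst) carried out 5 days after dosing, then counted on 4× images. The cells, lung cancer lines in 1536-well plates, had been dosed by pin tool the day after seeding with one drug alone or a fixed anchor-drug dose plus five library-drug doses (not always all listed) in √10 steps. Relative viability is the nuclei count in treated wells divided by that in vehicle wells, and each value is the median of duplicate plates.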

CUDC-101 + Pictilisib = compound: C#Cc1cccc(Nc2ncnc3cc(OC)c(OCCCCCCC(=O)NO)cc23)c1 [CUDC-101] + CS(=O)(=O)N1CCN(Cc2cc3nc(-c4cccc5[nH]ncc45)nc(N4CCOCC4)c3s2)CC1 [Pictilisib] (partner 1 µM)
Outline: as §1

[1] = compound: C1=CC=C2C(=C1)N=C(S2)C(C#N)C3=NC(=NC=C3)NCCC4=CN=CC=C4 + CC1(C)CCC(c2ccc(Cl)cc2)=C(CN2CCN(c3ccc(C(=O)NS(=O)(=O)c4ccc(N[C@H](CCN5CCOCC5)CSc5ccccc5)c(S(=O)(=O)C(F)(F)F)c4)cc3)CC2)C1 [Navitoclax] (partner 0.5 µM)
Outline: as §1

NVP-TAE684 + Alpelisib = compound: COc1cc(N2CCC(N3CCN(C)CC3)CC2)ccc1Nc1ncc(Cl)c(Nc2ccccc2S(=O)(=O)C(C)C)n1 [NVP-TAE684] + Cc1nc(NC(=O)N2CCC[C@H]2C(N)=O)sc1-c1ccnc(C(C)(C)C(F)(F)F)c1 [Alpelisib] (partner 2 µM)
Outline: as §1

UMC-11 showed a relative viability (CUDC-101 + Bortezomib; first compound 0.01 µM) of 0.918, a relative viability (CUDC-101 + Bortezomib; first compound 0.03162 µM) of 0.831 and a relative viability (CUDC-101 + Bortezomib; first compound 0.1 µM) of 0.468. It also gave a relative viability (CUDC-101 + Bortezomib; first compound 0.3162 µM) of 0.576, a relative viability (CUDC-101 + Bortezomib; first compound 1 µM) of 0.167 and a relative viability (CUDC-101 + Pictilisib; first compound 0.01 µM) of 0.857. For the same cell line, the relative viability (CUDC-101 + Pictilisib; first compound 0.03162 µM) was 0.775, the relative viability (CUDC-101 + Pictilisib; first compound 0.1 µM) was 0.679 and the relative viability (CUDC-101 + Pictilisib; first compound 0.3162 µM) was 0.575. It also gave a relative viability (CUDC-101 + Pictilisib; first compound 1 µM) of 0.108, a relative viability ([1]; first compound 0.005 µM) of 0.28 and a relative viability ([1]; first compound 0.01581 µM) of 0.304. For the same cell line, the relative viability ([1]; first compound 0.05 µM) was 0.294, the relative viability ([1]; first compound 0.1581 µM) was 0.307 and the relative viability ([1]; first compound 0.5 µM) was 0.306. The relative viability (NVP-TAE684 + Alpelisib; first compound 0.2 µM) was 0.961, the relative viability (NVP-TAE684 + Alpelisib; first compound 0.6325 µM) was 0.915 and the relative viability (NVP-TAE684 + Alpelisib; first compound 2 µM) was 0.213.
